Reference: patent US7125986B2, “Penicillanic acid derivative compounds and methods of making” (Southern Methodist University Foundation for Research, priority 1997, dated 2006)
Counter-ions that a name gives are not always drawn. Like-named read-outs stand apart in the source and are kept apart here.

Legend:
[1] = target: β-lactamase of Enterobacter cloacae P99 (Enterobacter cloacae, UniProt P05364); experiment: β-lactamase inhibition, nitrocefin hydrolysis (P99); format: biochemical; conditions: for β-lactamase inhibiting activity greater than compound 9 by a factor, P99: factor relative to compound 9
Procedure: (§1) The IC50 value of each compound was determined as follows. Following a 10 minute incubation of a dilute solution of enzyme (2.56 nM) and inhibitor (<0.64 μM), a 50 μL aliquot of the incubation mixture was further diluted into 1 mL nitrocefin (a substrate) solution, and the rate of hydrolysis was measured during a 1 minute period by monitoring the absorbance of nitrocefin as a function of time.

TEM-1 β-lactamase = TEM-1 β-lactamase (Escherichia coli, UniProt P62593); experiment: β-lactamase inhibition, nitrocefin hydrolysis (TEM-1); format: biochemical
Procedure: as §1

[2] = 10 minute incubation of enzyme (2.56 nM) and inhibitor, nitrocefin substrate, read-out: IC50 (uM) Ent. cloacae P99
[3] = 10 minute incubation of enzyme (2.56 nM) and inhibitor, nitrocefin substrate, read-out: IC50 (uM) TEM-1

Sequence of TEM-1 β-lactamase (P62593 24-286 limits assumed): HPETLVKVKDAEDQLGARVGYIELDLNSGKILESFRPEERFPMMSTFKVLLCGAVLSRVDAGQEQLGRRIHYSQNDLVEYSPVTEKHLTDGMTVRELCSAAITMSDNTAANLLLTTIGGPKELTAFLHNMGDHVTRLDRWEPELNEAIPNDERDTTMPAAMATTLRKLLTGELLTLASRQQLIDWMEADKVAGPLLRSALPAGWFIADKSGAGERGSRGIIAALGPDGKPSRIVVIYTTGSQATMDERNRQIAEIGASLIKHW
Sequence of β-lactamase of Enterobacter cloacae P99 (P05364 21-381): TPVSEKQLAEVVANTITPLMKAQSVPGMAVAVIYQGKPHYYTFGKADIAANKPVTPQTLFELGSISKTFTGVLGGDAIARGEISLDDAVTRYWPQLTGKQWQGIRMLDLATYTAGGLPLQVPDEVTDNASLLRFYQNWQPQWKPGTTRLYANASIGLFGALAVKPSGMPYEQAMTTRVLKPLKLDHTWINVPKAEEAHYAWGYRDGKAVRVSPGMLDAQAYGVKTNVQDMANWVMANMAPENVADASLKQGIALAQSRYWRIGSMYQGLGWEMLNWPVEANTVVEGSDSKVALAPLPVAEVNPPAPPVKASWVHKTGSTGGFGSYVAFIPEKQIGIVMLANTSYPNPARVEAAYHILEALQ

With `C[C@]1(COC=O)[C@H](C(=O)O)N2C(=O)/C(=C/C(=O)O)[C@H]2S1(=O)=O` [Compound 8c, Disodium salt of 2β-(formyloxymethyl)-6-[(Z)-carboxymethylene]-penicillinate 1,1-dioxide] the IC50 [1, 2] was 0.3 µM and the “β-lactamase inhibiting activity greater than compound 9 by a factor, P99” value [1] was ~2.
With `C[C@]1(C=CC#N)[C@H](C(=O)O)N2C(=O)/C(=C/C(=O)O)[C@H]2S1(=O)=O` (mixture of isomers) [Compound 17, Disodium Salt of 2β-[(E/Z)-(cyanoethenyl)]-6-[(Z)-carboxymethylene]-penicillinate 1,1-dioxide] the IC50 [1, 2] was 6.76 µM.
Molecule `CC1(CCl)C(C(=O)O)N2C(=O)/C(=C/C(=O)O)C2S1(=O)=O` (stereo not drawn) [Compound 12c, Disodium salt of 2β-(chloromethyl)-6-[(Z)-carboxymethylene]penicillinate 1,1-dioxide] has an IC50 (TEM-1 β-lactamase; [3]) of 120 µM and an IC50 [1, 2] of 105 µM.
In the case of `COC(=O)/C=C1/C(=O)N2[C@@H](C(=O)O)[C@](C)(COC(=O)CSc3nnnn3C)S(=O)(=O)[C@H]12` [Compound 8h, Sodium salt of 2β-[[(1-methyl-1H-tetrazol-5-yl)thio]acetoxymethyl]-6-[(Z)-(methoxycarbonyl)methylene]penicillinate 1,1-dioxide], the IC50 [1, 2] is reported as 3.69 µM.
Work on `Cn1nnnc1SCC(=O)OCC1(C)C(C(=O)O)N2C(=O)C(=CC(=O)O)C2S1(=O)=O` (stereo not drawn) [Compound 8g, Disodium salt of 2β-[[(1-methyl-1H-tetrazol-5-yl)thio]acetoxymethyl]-6-[(Z)-carboxymethylene]penicillinate 1,1-dioxide] yielded an IC50 (TEM-1 β-lactamase; [3]) of 0.23 µM and an IC50 [1, 2] of 0.64 µM.
With `CC(C)(C)OC(=O)/C=C1/C(=O)N2[C@@H](C(=O)O)[C@](C)(CCl)S(=O)(=O)[C@H]12` [Compound 12a, Sodium salt of 2β-(chloromethyl)-6-[(Z)-(t-butoxycarbonyl)methylene]-penicillinic acid 1,1 dioxide] the IC50 (TEM-1 β-lactamase; [3]) was 39 µM and the IC50 [1, 2] was 7.62 µM.
`COC(=O)/C=C1/C(=O)N2[C@@H](C(=O)O)[C@](C)(CCl)S(=O)(=O)[C@H]12` [Compound 12b, Sodium salt of 2β-(chloromethyl)-6-[(Z)-(methoxycarbonyl)methylene]-penicillanic acid 1,1 dioxide] was tested, and the IC50 [1, 2] was 6.96 µM.
For `CC(=O)OCC1(C)C(C(=O)O)N2C(=O)C(=Cc3ccccn3)C2S1(=O)=O` (stereo not drawn) [Compound 29a, Sodium 2β-(acetoxymethyl)-1,1-dioxo-6-[(Z)-2′-pyridylmethylene]penicillinate], the “β-lactamase inhibiting activity against TEM-1 (in words)” value (TEM-1 β-lactamase) was “potent”, the IC50 (TEM-1 β-lactamase; [3]) was 0.004 µM and the “β-lactamase inhibiting activity against P99 (in words)” value [1] was “potent”. For the same molecule, the IC50 [1, 2] was 0.062 µM.
`CC1(COC(=O)CCl)C(C(=O)O)N2C(=O)C(=CC(=O)O)C2S1(=O)=O` (stereo not drawn) [Compound 8b, Disodium salt of 2β-(chloroacetoxymethyl)-6-[(Z)-carboxymethylene]-penicillinate 1,1-dioxide] was tested, and the IC50 (TEM-1 β-lactamase; [3]) was 0.19 µM.
Molecule `CC1(COC(=O)Cc2ccc(O)c(O)c2)C(C(=O)O)N2C(=O)C(=CC(=O)O)C2S1(=O)=O` (stereo not drawn) [Compound 8i, Disodium Salt of 2β-[(3′,4′-Dihydroxyphenyl)acetoxy]methyl-6-[(Z)-carboxymethylene]-1,1-dioxopenicillinate] has an IC50 [1, 2] of 0.37 µM.
`C[C@]1(COC(=O)Cc2ccccc2)[C@H](C(=O)O)N2C(=O)/C(=C/c3ccccn3)[C@H]2S1(=O)=O` [Compound 29b, Sodium 1,1-Dioxo-2β-(phenylacetoxy)methyl-6-[(Z)-2′-pyridylmethylene]penicillinate] was tested, and the IC50 (TEM-1 β-lactamase) was 0.39 µM, the “β-lactamase inhibiting activity against TEM-1 (in words)” value (TEM-1 β-lactamase) was “potent” and the “β-lactamase inhibiting activity against P99 (in words)” value [1] was “potent”.
In the case of `C[C@]1(COC(=O)Cc2ccccc2)[C@H](C(=O)O)N2C(=O)/C(=C/C(=O)O)[C@H]2S1(=O)=O` [Compound 8d, Disodium salt of 2β-(phenylacetoxymethyl)-6-[(Z)-carboxymethylene]-penicillinate 1,1-dioxide], the IC50 (TEM-1 β-lactamase) is reported as 0.015 µM and the IC50 [1] is reported as 0.54 µM.
In the case of `CC(=O)OC[C@@]1(C)[C@H](C(=O)O)N2C(=O)/C(=C/C(=O)O)[C@H]2S1(=O)=O` [Compound 8a, Disodium salt of 2β-(acetoxymethyl)-6-[(Z)-carboxymethylene]-penicillinic acid-1,1-dioxide], the IC50 (TEM-1 β-lactamase; [3]) is reported as 0.213 µM, the IC50 [1, 2] is reported as 0.383 µM and the “β-lactamase inhibiting activity greater than compound 9 by a factor, P99” value [1] is reported as ~2.
Work on `COC(=O)C=C1C(=O)N2C(C(=O)O)C(C)(COC(C)=O)S(=O)(=O)C12` (stereo not drawn) [Compound 8e, Sodium salt of 2β-(acetoxymethyl)-6-[(Z)-(methoxycarbonyl)methylene]-penicillinic acid 1,1 dioxide] yielded an IC50 [1, 2] of 2.66 µM.
